Measurements from ChEMBL document CHEMBL1201862, “PubChem BioAssay data set” (2004).
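Cultured in 96-well plates, cells were exposed to test compound for 48 hours across five concentrations. GI50 marks 50% less growth.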 Calls of active or inactive are those of the source. Rule as the data show it: active = GI50 up to about 1.1 µM and inactive = higher.

Experiments:
Assay in all cases: NCI tumour cell line growth inhibition, 48 h
[1] = tested on: COLO 205
[2] = tested on: SK-MEL-5
[3] = tested on: SNB-19
[4] = tested on: SF-268
[5] = tested on: KM12
[6] = tested on: SR
[7] = tested on: CCRF-CEM
[8] = tested on: BT-549
[9] = tested on: HCT-15
[10] = tested on: A549
[11] = tested on: CAKI-1
[12] = tested on: MOLT-4
[13] = tested on: HT-29
[14] = tested on: U-251
[15] = tested on: LOX IMVI
[16] = tested on: MDA-N

Q: CC(=O)OCC1OC(n2c(N)c(C#N)c(-c3cccc(Cl)c3)c(C#N)c2=S)C(OC(C)=O)C(OC(C)=O)C1OC(C)=O (stereo not given) was tested. Which GI50 [1] did it give?
A: Its GI50 is 16.2 µM (inactive).

Q: What about the GI50 [2] of the same compound?
A: Its GI50 is 14.3 µM (inactive).

Q: What about the GI50 [3] of the same compound?
A: The GI50 was 31.5 µM (inactive).

Q: What about the GI50 [4] of the same compound?
A: Its GI50 is 13.3 µM (inactive).

Q: And the GI50 [5]?
A: Its GI50 is 15.5 µM (inactive).

Q: And the GI50 [6]?
A: The GI50 was 14.7 µM (inactive).

Q: What about the GI50 [7] of the same compound?
A: Its GI50 is 3.31 µM (inactive).

Q: And the GI50 [8]?
A: The GI50 was 20.7 µM (inactive).

Q: And the GI50 [9]?
A: Its GI50 is 22.5 µM.

Q: What about the GI50 [10] of the same compound?
A: The GI50 was 24.3 µM (inactive).

Q: What about the GI50 [11] of the same compound?
A: The GI50 was 26.8 µM (inactive).

Q: And the GI50 [12]?
A: Its GI50 is 11.9 µM (inactive).

Q: And the GI50 [13]?
A: Its GI50 is 24.5 µM (inactive).

Q: And the GI50 [14]?
A: Its GI50 is 22.8 µM (inactive).

Q: What about the GI50 [15] of the same compound?
A: The GI50 was 14.7 µM (inactive).

Q: And the GI50 [16]?
A: Its GI50 is 19.1 µM (inactive).

Q: O=C1CC(C(OCc2ccccc2)C(OCc2ccccc2)C(OCc2ccccc2)C(COCc2ccccc2)OCc2ccccc2)CC(=O)N1 (stereo not given) was tested. Which GI50 [2] did it give?
A: Its GI50 is > 100 µM (inactive).

Q: What about the GI50 [3] of the same compound?
A: The GI50 was > 100 µM (inactive).

Q: And the GI50 [4]?
A: Its GI50 is > 100 µM (inactive).

Q: What about the GI50 [6] of the same compound?
A: The GI50 was > 100 µM (inactive).

Q: And the GI50 [7]?
A: Its GI50 is > 100 µM (inactive).

Q: What about the GI50 [8] of the same compound?
A: The GI50 was > 100 µM (inactive).

Q: What about the GI50 [9] of the same compound?
A: The GI50 was > 100 µM.

Q: And the GI50 [10]?
A: Its GI50 is > 100 µM (inactive).

Q: What about the GI50 [12] of the same compound?
A: The GI50 was 59 µM (inactive).

Q: And the GI50 [13]?
A: The GI50 was > 100 µM (inactive).

Q: What about the GI50 [14] of the same compound?
A: Its GI50 is 79.8 µM (inactive).

Q: And the GI50 [15]?
A: The GI50 was > 100 µM (inactive).

Q: And the GI50 [16]?
A: The GI50 was > 100 µM (inactive).

Q: How did the GI50 [1] turn out when NC1(c2cc3ccccc3s2)CCCCCC1 was run?
A: Its GI50 is 12.6 µM (inactive).

Q: What about the GI50 [2] of the same compound?
A: The GI50 was 15.1 µM (inactive).

Q: What about the GI50 [3] of the same compound?
A: Its GI50 is 18.2 µM (inactive).

Q: What about the GI50 [5] of the same compound?
A: The GI50 was 16 µM (inactive).

Q: And the GI50 [6]?
A: The GI50 was 16.2 µM (inactive).

Q: What about the GI50 [7] of the same compound?
A: Its GI50 is 16 µM (inactive).

Q: And the GI50 [8]?
A: The GI50 was 17.7 µM (inactive).

Q: And the GI50 [9]?
A: The GI50 was 17.1 µM.

Q: What about the GI50 [10] of the same compound?
A: The GI50 was 18.1 µM (inactive).

Q: And the GI50 [11]?
A: Its GI50 is 13.8 µM (inactive).

Q: What about the GI50 [12] of the same compound?
A: The GI50 was 14.1 µM (inactive).

Q: And the GI50 [13]?
A: The GI50 was 14.2 µM (inactive).

Q: And the GI50 [14]?
A: The GI50 was 15.7 µM (inactive).

Q: What about the GI50 [15] of the same compound?
A: Its GI50 is 17.9 µM (inactive).

Q: What about the GI50 [16] of the same compound?
A: The GI50 was 16.6 µM (inactive).

Q: With Nc1cc(N2CCOCC2)nc(=O)n1-c1ccc(Cl)cc1 as the compound, how does the GI50 [1] read?
A: The GI50 was > 100 µM (inactive).

Q: What about the GI50 [2] of the same compound?
A: The GI50 was > 100 µM (inactive).

Q: And the GI50 [3]?
A: Its GI50 is > 100 µM (inactive).

Q: What about the GI50 [5] of the same compound?
A: The GI50 was > 100 µM (inactive).

Q: And the GI50 [6]?
A: The GI50 was > 100 µM (inactive).

Q: And the GI50 [7]?
A: Its GI50 is > 100 µM (inactive).

Q: And the GI50 [8]?
A: The GI50 was > 100 µM (inactive).

Q: And the GI50 [9]?
A: Its GI50 is > 100 µM.

Q: What about the GI50 [10] of the same compound?
A: Its GI50 is > 100 µM (inactive).

Q: And the GI50 [11]?
A: The GI50 was > 100 µM (inactive).

Q: What about the GI50 [12] of the same compound?
A: Its GI50 is > 100 µM (inactive).

Q: What about the GI50 [13] of the same compound?
A: The GI50 was > 100 µM (inactive).

Q: What about the GI50 [14] of the same compound?
A: Its GI50 is > 100 µM (inactive).

Q: And the GI50 [15]?
A: The GI50 was > 100 µM (inactive).

Q: And the GI50 [16]?
A: The GI50 was > 100 µM (inactive).

Q: Which results are given for NC1CC(=O)c2cc(Br)sc21 (stereo not given)?
A: GI50 [1]: > 100 µM (inactive); GI50 [2]: > 100 µM (inactive); GI50 [3]: > 100 µM (inactive); GI50 [4]: > 100 µM (inactive); GI50 [5]: > 100 µM (inactive); GI50 [6]: > 100 µM (inactive); GI50 [7]: > 100 µM (inactive); GI50 [8]: > 100 µM (inactive); GI50 [9]: > 100 µM; GI50 [10]: > 100 µM (inactive); GI50 [11]: > 100 µM (inactive); GI50 [12]: > 100 µM (inactive); GI50 [13]: > 100 µM (inactive); GI50 [14]: > 100 µM (inactive); GI50 [16]: > 100 µM (inactive)

Q: Cc1cc([C@H](C#N)c2nc3ccccc3s2)nc(Cl)n1 was tested. Which GI50 [1] did it give?
A: The GI50 was 2.4 µM (inactive).

Q: And the GI50 [2]?
A: The GI50 was 1.79 µM (inactive).

Q: And the GI50 [3]?
A: The GI50 was 6.7 µM (inactive).

Q: What about the GI50 [4] of the same compound?
A: Its GI50 is 5.01 µM (inactive).

Q: And the GI50 [5]?
A: The GI50 was 2.78 µM (inactive).

Q: What about the GI50 [6] of the same compound?
A: The GI50 was 1.31 µM (inactive).

Q: And the GI50 [7]?
A: The GI50 was 3.82 µM (inactive).

Q: And the GI50 [8]?
A: Its GI50 is 3.94 µM (inactive).

Q: And the GI50 [9]?
A: The GI50 was 3.66 µM.

Q: What about the GI50 [10] of the same compound?
A: Its GI50 is 14.8 µM (inactive).

Q: And the GI50 [11]?
A: The GI50 was 4.51 µM (inactive).

Q: What about the GI50 [12] of the same compound?
A: The GI50 was 5.5 µM (inactive).

Q: What about the GI50 [13] of the same compound?
A: Its GI50 is 3.88 µM (inactive).

Q: What about the GI50 [14] of the same compound?
A: The GI50 was 2.86 µM (inactive).

Q: And the GI50 [15]?
A: Its GI50 is 2.89 µM (inactive).

Q: What about the GI50 [16] of the same compound?
A: The GI50 was 3.55 µM (inactive).

Q: For CC(=O)OCC1OC(n2c(C)c(/N=N/c3ccccc3)c(C)c(C#N)c2=S)C(OC(C)=O)C(OC(C)=O)C1OC(C)=O (stereo not given), which GI50 [1] is on record?
A: The GI50 was 86.3 µM (inactive).

Q: And the GI50 [2]?
A: Its GI50 is 34 µM (inactive).

Q: And the GI50 [3]?
A: The GI50 was 24.2 µM (inactive).

Q: What about the GI50 [4] of the same compound?
A: The GI50 was 57.1 µM (inactive).

Q: And the GI50 [5]?
A: Its GI50 is > 100 µM (inactive).

Q: And the GI50 [6]?
A: Its GI50 is > 100 µM (inactive).

Q: And the GI50 [7]?
A: Its GI50 is > 100 µM (inactive).

Q: And the GI50 [8]?
A: The GI50 was 49.3 µM (inactive).

Q: What about the GI50 [10] of the same compound?
A: Its GI50 is 57.3 µM (inactive).

Q: And the GI50 [11]?
A: The GI50 was 26.6 µM (inactive).

Q: What about the GI50 [12] of the same compound?
A: Its GI50 is > 100 µM (inactive).

Q: What about the GI50 [13] of the same compound?
A: The GI50 was > 100 µM (inactive).

Q: And the GI50 [14]?
A: Its GI50 is > 10 µM (inactive).

Q: And the GI50 [15]?
A: Its GI50 is 39.6 µM (inactive).

Q: What about the GI50 [16] of the same compound?
A: Its GI50 is > 100 µM (inactive).
